Source: patent US20080176787A1, “Parathyroid hormone analogues and methods of use” (priority 2005, published 2008)
Positions of bridges follow the written chain, without caps; N, C: chain ends. Residues, ends and D or L forms follow the SMILES beside them.

How the values were obtained:
[1] = system: gonad-intact cynomolgus monkeys; test: 52-week (12 months) daily subcutaneous study in gonad-intact young cynomolgus monkeys: bone mass, histomorphometry, % cortical porosity; assay type: in vivo
Experimental: The peptide [Leu^27]cyclo[Glu^22-Lys^26]-hPTH-(1-31)-NH2 Ostabolin-C™ was administered daily by subcutaneous injection to gonad-intact cynomolgus monkeys (4/sex/group) at dose levels of 0, 2, 10 and 25 μg/kg for 52 weeks. Monkeys were 30 to 40 months of age (2.3-3.5 kg) at treatment start. Tibiae were retained for histomorphometry following labeling with calcein green 15 and 5 days prior to euthanasia. Bone mass, as measured by DXA (dual-energy x-ray absorptiometry) and QCT (quantitative computed tomography), was increased at the lumbar spine, femur and tibia. Changes in vertebral BMD (bone mineral density) translated into significant increases in bone strength. […] Tibial cancellous bone volume increased by more than 50% in all the peptide [Leu^27]cyclo[Glu^22-Lys^26]-hPTH-(1-31)-NH2 treated groups compared to controls and in the tibial mid-diaphysis, increases in cortical width and relative cortical area with concurrent decreases in medullary area were observed. […] Increases in indices of bone formation were associated with decreases in indices of bone resorption (decreased bone resorption markers, decreased osteoclast surface area, minimal cortical porosity), consistent with the uncoupling of these events. This combination of anabolic and anti-catabolic actions may have significant therapeutic value in the treatment of osteoporosis.
Comparative data regarding increase in cortical bone porosity in monkey subjects using Ostabolin C at a variety of doses and using the prior art PTHs 1-34 is shown below.

[2] = system: post-menopausal women with low bone mineral density; test: Dose/weight cutoff subgroup analysis and modeling of Phase II 30 and 45 μg cohorts; assay type: in vivo, human; design: Mean LS-BMD / FN-BMD / TH-BMD / P1NP / CTx: unit not given here
Experimental: The effect of the dose optimization strategy was evaluated by performing subgroup analyses using actual data from the 30 and 45 μg cohorts of the study (i.e. creation of a new subgroup by combining all patients below the weight cutoff from the 30 μg dose group with all patients above the weight cutoff from the 45 μg dose group, shown in the table below).
A variety of new subgroups were created out of the patients who participated in the Phase II clinical trial. The groups from Phase II are shown above, where each group received a single dose, either 7.5 μg, 15 μg, 30 μg, 45 μg, or placebo. The 30 μg and 45 μg dose groups were re-grouped, according to the weight of the patient, and over 100 new sub-groups were created. This approach of creating new sub-groups out of dosages which are relatively close to each other, is a novel way of conducting Phase II studies.
For the 105 patients who were originally given 30 or 45 μg, new groups were created by utilizing multiple weight cut-offs in increments of 0.5 kg. For example, one new group had the weight cut-off at 59 kg, meaning that every patient from the original low dose (30 μg) group who weighed less than 59 kg and every patient who weighed more than 59 kg from the original high dose (45 μg) group formed a new cohort. This new cohort represents a dose/weight cut-off of 59 kg, a group in which patients weighing less than 59 kg receive the low dose (30 μg) and patients weighing more than 59 kg receive the high dose (45 μg). Another example can be illustrated using a weight cutoff of 68 kg. Such a group would include all those patients who weigh less than 68 kg and who originally received the low dose (30 μg) as well as all those patients who weigh more than 68 kg and who originally received the high dose (45 μg). By using this method, over 100 separate cohorts were created by altering the dose/weight cut-off in increments of 0.5 kg. A summary of the data generated by these new dose/weight cut-off cohorts, using 68 kg and 59 kg as the dose/weight cut-off, is shown in the table below.
The table above illustrates the actual clinical profile obtained for two dose/weight cutoffs (59 kg which produces a higher exposure profile since more patients receive the higher dose and 68 kg in which more patients receive the lower dose). […] One problem with simple subgroup analysis is that endpoints with a small number of events can skew the observed profile because of large changes in incidence when one of these events moves from one side of the weight cutoff to the other. Therefore, the dose/weight cutoff methodology was applied systematically to the data from the 30 and 45 μg dose groups starting at the lowest weight patient in the study (corresponds to the 45 μg profile because everyone receives the high dose) and increasing the cutoff by 0.5 kg increments through 100 kg (corresponding to the 30 μg profile because everyone receives the low dose). The multiple cutoff profiles thus obtained when graphed can then smooth out the effect of individual events as illustrated for the effect on hypercalcemia. The effect of weight cutoff on clinical profile can then be modeled to eliminate the skewing effects of individual data points as illustrated in FIG. 37-40. This approach has been applied to primary and secondary endpoints in the study.
An important benefit of this modeling is that it is possible to project a clinical profile for a specific weight cutoff/dose exposure window with a high degree of accuracy since the effect of individual events is eliminated. The anticipated hypercalcemia and lumbar spine BMD profile for a 68 kg cutoff is illustrated in the table below, which compares the modeled hypercalcemia and lumbar spine BMD changes and the actual Phase II data for the 68 kg weight cutoff. It will also be possible to model the effects of even narrower exposure windows by using multiple dose cutoffs and different doses.

[3] = system: post-menopausal women with low bone mineral density; test: Phase II clinical study of subcutaneous Ostabolin-C in post-menopausal women with low BMD (BMD, bone markers, serum calcium, side effects)
Text: A four month Phase II clinical study was undertaken to investigate the safety, tolerability and efficacy of Ostabolin-C™ in post-menopausal women with low bone mineral density (BMD). […] The clinical protocol is a 16-week phase II randomized, double-blind, placebo-controlled, parallel group, dose finding study to investigate the safety, tolerability and efficacy of Ostabolin-C™ in post-menopausal women with low bone mineral density (BMD). In this study, 261 patients underwent four months of daily dosing of placebo and four active groups. The active groups included daily administration of Ostabolin-C™ in doses of 7.5, 15, 30, and 45 μg. Ostabolin-C™ is formulated as a clear, colorless liquid provided in pre-filled syringes and injected subcutaneously (SC). Subjects self-administer SC 0.1 mL injections of their assigned dose of Ostabolin-C™ 7.5, 15, 30, and 45 μg or placebo daily for 16 weeks in rotating quadrants of the abdomen. The subjects were post-menopausal women (for at least 5 years) with moderate osteoporosis.
The key endpoints for the study include change in mean BMD at the lumbar spine, as assessed by dual energy x-ray absorptiometry (DEXA), and measured by change from the Baseline visit. The Baseline visit is the first visit of the patient, before undergoing any treatment. Secondary efficacy endpoints include the following, as measured by change from Baseline visit:
DEXA: Bone formation and resorption markers: • Mean femoral neck BMD • Serum osteocalcin • Mean trochanter BMD • Serum amino terminal pro-peptide of type 1 pro-collagen (P1NP) • Mean total hip BMD • Mean radial BMD (distal and midshaft) • Bone specific alkaline phosphatase (BSAP) • Bone mineral content (BMC) • Serum C-telopeptide (CTx) • Bone area • Serum N-telopeptide (NTx)

## CC[C@H](C)[C@H](NC(=O)[C@H](CCC(=O)O)NC(=O)[C@H](CO)NC(=O)[C@@H](NC(=O)[C@@H](N)CO)C(C)C)C(=O)N[C@@H](CCC(N)=O)C(=O)N[C@@H](CC(C)C)C(=O)N[C@@H](CCSC)C(=O)N[C@@H](Cc1c[nH]cn1)C(=O)N[C@@H](CC(N)=O)C(=O)N[C@@H](CC(C)C)C(=O)NCC(=O)N[C@@H](CCCCN)C(=O)N[C@@H](Cc1c[nH]cn1)C(=O)N[C@@H](CC(C)C)C(=O)N[C@@H](CC(N)=O)C(=O)N[C@@H](CO)C(=O)N[C@@H](CCSC)C(=O)N[C@@H](CCC(=O)O)C(=O)N[C@@H](CCCNC(=N)N)C(=O)N[C@H](C(=O)N[C@H]1CCC(=O)NCCCC[C@@H](C(=O)N[C@@H](CC(C)C)C(=O)N[C@@H](CC(C)C)C(=O)N[C@@H](CCC(N)=O)C(=O)N[C@@H](CC(=O)O)C(=O)N[C@H](C(N)=O)C(C)C)NC(=O)[C@H](CCCNC(=N)N)NC(=O)[C@H](CC(C)C)NC(=O)[C@H](Cc2c[nH]c3ccccc23)NC1=O)C(C)C [Ostabolin-C, [Leu^27]cyclo[Glu^22-Lys^26]-PTH-(1-31)-NH2] (H-SVSEIQLMHNLGKHLNSMERVEWLRKLLQDV-NH2; lactam 22-26)
[1]; 2, 10, 25 μg/kg SC daily, 52 weeks
  Bone mass (DXA, QCT) at lumbar spine, femur and tibia: increased
[1]; 52 weeks
  osteoclast surface: significant reduction
[1]; all treated groups (2, 10, 25 μg/kg SC daily, 52 weeks)
  Tibial cancellous bone volume increase compared to controls: more than 50%
[2]; 59 kg cut
  CTx: 57.5
  FN-BMD: 1.5
  LS-BMD 3%: 80.8
  LS-BMD 6%: 28.8
  P1NP: 143.5
  TH-BMD: 0.69
[2]; 59 kg cut (30 μg below, 45 μg above)
  Mean LS-BMD: 4.95
[2]; 68 kg cut
  CTx: 32.1
  FN-BMD: 0.29
  LS-BMD 3%: 78.0
  LS-BMD 6%: 29.3
  P1NP: 132.1
  TH-BMD: 0.40
[2]; 68 kg cut (30 μg below, 45 μg above)
  Mean LS-BMD: 4.65
[2]; 68 kg cutoff, modeled
  LS-BMD 3%: 76.5
  Mean LS-BMD: 4.57
[3]; 30 μg
  bone resorption stimulation as % of expected effect of 20 μg Forteo: approximately 50%
[3]; 30 μg (4 months)
  CTx: 1400 pM/L
  FN-BMD (%): −0.05%
  LS-BMD (%): 3.6%
  LS-BMD (%), subset with LS-BMD T score < −2.5: 4.51%
  P1NP: 50.0 µg/L
  TH-BMD (%): 0.06%
[3]; 30 ug, 4 months
  CTx: 30.6
  FN-BMD: −0.06
  LS-BMD 3%: 59.6
  LS-BMD 6%: 19.1
  Mean LS-BMD: 3.72
  P1NP: 117.2
  TH-BMD: 0.07
[3]; 45 μg
  BMD in the lumbar spine: increase in BMD
[3]; 45 μg (4 months)
  CTx: 2900 pM/L
  FN-BMD (%): 2.75%
  LS-BMD (%): 5.2%
  LS-BMD (%), subset with LS-BMD T score < −2.5: 5.9%
  P1NP: 79.5 µg/L
  TH-BMD (%): 1.45%
[3]; 45 μg For 15 Weeks
  Mean % Change In Femoral Neck (BMD): 2.75%
  Mean % Change In Total Hip (BMD): 1.44%
  Mean % Change In Trochanter (BMD): 2.24%
[3]; 45 ug, 4 months
  CTx: 60.3
  FN-BMD: 3.0
  LS-BMD 3%: 79.5
  LS-BMD 6%: 36.4
  Mean LS-BMD: 5.59
  P1NP: 160.5
  TH-BMD: 1.6
[3]; 7.5, 15, and 30 μg
  cortical BMD in distal and mid-shaft radius compared to placebo and Forteo: increases cortical BMD
[3]; 7.5, 15, and 30 μg daily, 15 weeks
  lumbar spine BMD: increase in lumbar spine BMD
[3]; low doses, 15 weeks
  hip, femoral neck, and trochanter BMD: mild BMD increase
